Data as given in ChEMBL document CHEMBL2424637, “Nucleophilic substitution reactions of 1,4-naphthoquinone and biologic properties of novel S-, S,S-, N-, and N,S-substituted 1,4-naphthoquinone derivatives” (2013).
Values after ≈ are worked out from the molar mass of the structure shown. Active and inactive are the calls of the source. The rule behind the calls is not given here.

Legend:
Assay type in all cases: functional
Mycobacterium [1] = assay: Antibacterial activity against Mycobacterium luteum B-917 at 0.1% after 24 hrs by agar disk diffusion technique
Staphylococcus aureus [2] = assay: Antibacterial activity against Staphylococcus aureus 209-P at 0.1% after 24 hrs by agar disk diffusion technique
Escherichia coli [3] = assay: Antibacterial activity against Escherichia coli B-906 at 0.1% after 24 hrs by agar disk diffusion technique
Aspergillus niger [4] = assay: Antifungal activity against Aspergillus niger F-1119 at 0.1% after 48 to 72 hrs by agar disk diffusion technique
Yamadazyma tenuis [5] = assay: Antifungal activity against Candida tenuis VKM Y-70 at 0.1% after 48 to 72 hrs by agar disk diffusion technique
Aspergillus niger [6] = assay: Antifungal activity against Aspergillus niger F-1119 after 24 to 72 hrs by serial dilution technique
Yamadazyma tenuis [7] = assay: Antifungal activity against Candida tenuis VKM Y-70 after 24 to 72 hrs by serial dilution technique
Mycobacterium [8] = assay: Antibacterial activity against Mycobacterium luteum B-917 after 24 to 72 hrs by serial dilution technique
Staphylococcus aureus [9] = assay: Antibacterial activity against Staphylococcus aureus 209-P after 24 to 72 hrs by serial dilution technique
Escherichia coli [10] = assay: Antibacterial activity against Escherichia coli B-906 after 24 to 72 hrs by serial dilution technique
Aspergillus niger [11] = assay: Antifungal activity against Aspergillus niger F-1119 at 0.5% after 48 to 72 hrs by agar disk diffusion technique
Yamadazyma tenuis [12] = assay: Antifungal activity against Candida tenuis VKM Y-70 at 0.5% after 48 to 72 hrs by agar disk diffusion technique
Mycobacterium [13] = assay: Antibacterial activity against Mycobacterium luteum B-917 at 0.5% after 24 hrs by agar disk diffusion technique
Staphylococcus aureus [14] = assay: Antibacterial activity against Staphylococcus aureus 209-P at 0.5% after 24 hrs by agar disk diffusion technique
Escherichia coli [15] = assay: Antibacterial activity against Escherichia coli B-906 at 0.5% after 24 hrs by agar disk diffusion technique

Compound	diameter of the inhibition zone (DIZ) (Mycobacterium [1])	diameter of the inhibition zone (DIZ) (Staphylococcus aureus [2])	diameter of the inhibition zone (DIZ) (Escherichia coli [3])	diameter of the inhibition zone (DIZ) (Aspergillus niger [4])	diameter of the inhibition zone (DIZ) (Yamadazyma tenuis [5])	MIC (Aspergillus niger [6])	MIC (Yamadazyma tenuis [7])	MIC (Mycobacterium [8])	MIC (Staphylococcus aureus [9])	MIC (Escherichia coli [10])	diameter of the inhibition zone (DIZ) (Aspergillus niger [11])	diameter of the inhibition zone (DIZ) (Yamadazyma tenuis [12])	diameter of the inhibition zone (DIZ) (Mycobacterium [13])	diameter of the inhibition zone (DIZ) (Staphylococcus aureus [14])	diameter of the inhibition zone (DIZ) (Escherichia coli [15])	inhibition zone (IZ) (Yamadazyma tenuis [5])
CN[C@H](CC(C)C)C(=O)N[C@H]1C(=O)N[C@@H](CC(N)=O)C(=O)N[C@H]2C(=O)N[C@H]3C(=O)N[C@H](C(=O)N[C@H](C(=O)O)c4cc(O)cc(O)c4-c4cc3ccc4O)[C@H](O)c3ccc(c(Cl)c3)Oc3cc2cc(c3O[C@@H]2O[C@H](CO)[C@@H](O)[C@H](O)[C@H]2O[C@H]2C[C@](C)(N)[C@H](O)[C@H](C)O2)Oc2ccc(cc2Cl)[C@H]1O [VANCOMYCIN]	18 mm	15 mm	14 mm													
CCCCOC(=O)CCSC1=C(Sc2ccc(O)cc2)C(=O)c2ccccc2C1=O	0 mm	0 mm	0 mm	0 mm	0 mm	inactive	inactive	inactive	inactive	inactive	0 mm	0 mm	6 mm	0 mm	0 mm	
CCOC1=C(N(CC)Cc2ccncc2)C(=O)c2ccccc2C1=O	0 mm	0 mm	0 mm	8 mm	12.4 mm	31.2 µg/mL (≈ 92.7 µM)	62.5 µg/mL (≈ 186 µM)	125 µg/mL (≈ 372 µM)	62.5 µg/mL (≈ 186 µM)	inactive	19 mm	20 mm	7.4 mm	0 mm	0 mm	
O=C1C(Sc2c(Cl)c(Cl)c(Cl)c(Cl)c2Cl)=C(N2CCN(c3ccc(F)cc3)CC2)C(=O)c2ccccc21	0 mm	0 mm	0 mm	0 mm	0 mm	inactive	inactive	125 µg/mL (≈ 203 µM)	inactive	inactive	0 mm	0 mm	0 mm	0 mm	0 mm	
NYSTATIN																19 mm
COC(=O)CCSC1=C(N2CCC3(CC2)OCCO3)C(=O)c2ccccc2C1=O	0 mm	0 mm	0 mm	0 mm	0 mm	500 µg/mL (≈ 1200 µM)	inactive	250 µg/mL (≈ 599 µM)	inactive	inactive	8.4 mm	0 mm	12.6 mm	0 mm	0 mm	
O=C1C(Sc2c(Cl)c(Cl)c(Cl)c(Cl)c2Cl)=C(N2CCCCC2)C(=O)c2ccccc21	0 mm	0 mm	0 mm	0 mm	0 mm	inactive	inactive	inactive	inactive	inactive	0 mm	0 mm	0 mm	0 mm	0 mm	
CCCCOC(=O)CCSC1=C(N2CCC3(CC2)OCCO3)C(=O)c2ccccc2C1=O	0 mm	0 mm	0 mm	7 mm	0 mm	62.5 µg/mL (≈ 136 µM)	inactive	125 µg/mL (≈ 272 µM)	inactive	inactive	9 mm	0 mm	0 mm	0 mm	0 mm	
CSc1ccc(SC2=C(Sc3ccc(SC)cc3)C(=O)c3ccccc3C2=O)cc1	8.7 mm	0 mm	0 mm	0 mm	0 mm	500 µg/mL (≈ 1070 µM)	inactive	125 µg/mL (≈ 268 µM)	250 µg/mL (≈ 536 µM)	inactive	6 mm	0 mm	11 mm	8.7 mm	0 mm	
COc1ccc(CSC2=C(SCc3ccc(OC)cc3)C(=O)c3ccccc3C2=O)cc1	0 mm	0 mm	0 mm	0 mm	7.4 mm	250 µg/mL (≈ 540 µM)	62.5 µg/mL (≈ 135 µM)	inactive	inactive	inactive	7.4 mm	11.7 mm	7 mm	0 mm	0 mm	
O=C1C(Sc2c(Cl)c(Cl)c(Cl)c(Cl)c2Cl)=C(N2CCCC2)C(=O)c2ccccc21	0 mm	0 mm	0 mm	0 mm	0 mm	inactive	inactive	inactive	inactive	inactive	0 mm	0 mm	0 mm	0 mm	0 mm	
O=C1C(Sc2c(Cl)c(Cl)c(Cl)c(Cl)c2Cl)=C(N2CCSCC2)C(=O)c2ccccc21	0 mm	0 mm	0 mm	0 mm	0 mm	inactive	125 µg/mL (≈ 232 µM)	inactive	inactive	inactive	0 mm	0 mm	0 mm	0 mm	0 mm	
O=C1C(Cl)=C(N2CCN(CCO)CC2)C(=O)c2ccccc21	16 mm	11.4 mm	6 mm	0 mm	0 mm	125 µg/mL (≈ 390 µM)	125 µg/mL (≈ 390 µM)	31.2 µg/mL (≈ 97.3 µM)	62.5 µg/mL (≈ 195 µM)	500 µg/mL (≈ 1560 µM)	0 mm	0 mm	28.7 mm	20.7 mm	8 mm	
O=C1C(Cl)=C(N2CCN(c3ccc([N+](=O)[O-])cc3)CC2)C(=O)c2ccccc21	0 mm	0 mm	0 mm	0 mm	8.5 mm	31.2 µg/mL (≈ 78.4 µM)	31.2 µg/mL (≈ 78.4 µM)	inactive	inactive	inactive	13.7 mm	15.7 mm	0 mm	0 mm	0 mm	
O=C1C(Sc2cc(Cl)ccc2Cl)=C(Sc2cc(Cl)ccc2Cl)C(=O)c2ccccc21	0 mm	0 mm	0 mm	0 mm	0 mm	inactive	500 µg/mL (≈ 976 µM)	inactive	inactive	inactive	0 mm	7 mm	0 mm	0 mm	0 mm	
